From patent US9247759B2, “Identification of human T2R receptors that respond to bitter compounds that elicit the bitter taste in compositions, and the use thereof in assays to identify compounds that inhibit (block) bitter taste in compositions and use thereof” (SENOMYX, INC., priority 2007, dated 2016)
Like-named read-outs stand apart in the source and are kept apart here.

Tests used:
hT2R3 = hT2R3 (Homo sapiens (Human), UniProt Q9NYW6); assay: hT2R panel inhibition, transient HEK293 G16g44, agonist Chloroquine pH6.5 50 μM; assay type: cell-based; conditions: HEK293, compound at 25 μM; receptor activated to EC80 with the corresponding agonist; read-out: screening result against bitter receptor 3
Method: (§1) Specifically, in order to evaluate the inhibitory selectivity of the Compound C compound, this compound was tested against 22 human T2Rs which were deorphaned by Senomyx. These receptors and the bitter ligands that activate these human T2Rs are reported in earlier patent applications which are incorporated by reference herein. These 22 human T2Rs are hT2R1, 3, 4, 5, 7, 8, 9, 10, 13, 14, 16, 44, 51, 54, 55, 61, 63, 64, 65, 67, 71 and 75. The amino acid and nucleic acid sequences of all of these T2Rs may be found in these earlier patent applications. These human T2Rs were each individually transiently transfected into HEK293 cells that stably express the promiscuous G protein G16g44 and functional assays were effected using these receptors as disclosed in these same patent applications. […] The ligands were used at EC80 concentration levels. The list of bitter ligands utilized and the tested ligand concentrations are contained in Table 5 of this example.
(§2) Relating to the foregoing, FIG. 5 contains experimental results wherein Compound C was tested with different agonist compounds. The inhibition activity is represented by the reduction of receptor activity in the presence of Compound C. […] These 13 hT2Rs are hT2R3, 7, 10, 14, 16, 44, 51, 55, 61, 63, 64, 65, and 71.

hT2R61 = hT2R61 (Homo sapiens (Human), UniProt P59537); assay: hT2R panel inhibition, transient HEK293 G16g44, agonist Aristolochic Acid 25 nM; assay type: cell-based; conditions: HEK293, compound at 25 μM
Method: as §1, §2

hT2R64 = hT2R64 (Homo sapiens (Human), UniProt P59538); assay: hT2R panel inhibition, transient HEK293 G16g44, agonist Aristolochic Acid 1 μM; assay type: cell-based; conditions: HEK293, compound at 25 μM; receptor activated to EC80 with the corresponding agonist; read-out: screening result against bitter receptor 64
Method: as §1, §2

hT2R14 [1] = molecular target: T1, hT2R14 (Homo sapiens (Human), UniProt Q9NYV8); assay: hT2R panel inhibition, transient HEK293 G16g44, agonist Aristolochic Acid 2 μM; assay type: cell-based; conditions: HEK293, compound at 25 μM
Method: as §1

hT2R5 = hT2R5 (Homo sapiens (Human), UniProt Q9NYW4); assay: hT2R panel inhibition, transient HEK293 G16g44, agonist Picoline 10 mM; assay type: cell-based; conditions: HEK293, compound at 25 μM; receptor activated to EC80 with the corresponding agonist; read-out: screening result against bitter receptor 5
Method: as §1, §2

hT2R55 = assay: hT2R panel inhibition, transient HEK293 G16g44, agonist Cinchonine 150 μM; assay type: cell-based, human; conditions: compound at 25 μM; receptor activated to EC80 with the corresponding agonist
Method: as §1, §2

hT2R63 = assay: hT2R panel inhibition, transient HEK293 G16g44, agonist Caffeine 1 mM or Andrographolide 100 μM; assay type: cell-based, human; conditions: compound at 25 μM; for screening result against bitter receptor 63: receptor activated to EC80 with the corresponding agonist; for inhibition of bitter receptor 63: receptor activated to EC80 with agonist
Method: as §1, §2

hT2R44 = assay: hT2R panel inhibition, transient HEK293 G16g44, agonist Denatonium 0.5 μM; assay type: cell-based, human; conditions: compound at 25 μM; for inhibition of bitter receptor 44: receptor activated to EC80 with agonist; for screening result against bitter receptor 44: receptor activated to EC80 with the corresponding agonist
Method: as §1, §2

hT2R14 [2] = molecular target: T1, hT2R14; assay: hT2R14 antagonist high-throughput FLIPR assay, stable cell line with G16g44, agonist aristolochic acid; assay type: cell-based
In short: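 Compounds were co-applied with 3 μM aristolochic acid, a dose set to reach 70-80% of maximal hT2R14 activation. Read-out was FLIPR fluorescence in a stable HEK293 line co-expressing hT2R14 and G16g44.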

hT2R7 = hT2R7 (Homo sapiens (Human), UniProt Q9NYW3); assay: hT2R panel inhibition, transient HEK293 G16g44, agonist Chloroquine pH6.5 10 mM; assay type: cell-based; conditions: HEK293, compound at 25 μM
Method: as §1, §2

hT2R67 = assay: hT2R panel inhibition, transient HEK293 G16g44, agonist Andrographolide 5 μM; assay type: cell-based, human; conditions: compound at 25 μM; receptor activated to EC80 with the corresponding agonist
Method: as §1, §2

hT2R71 = hT2R71 (Homo sapiens (Human), UniProt P59536); assay: hT2R panel inhibition, transient HEK293 G16g44, agonist Picric Acid 10 μM; assay type: cell-based; conditions: HEK293, compound at 25 μM
Method: as §1, §2

hT2R10 = hT2R10 (Homo sapiens (Human), UniProt Q9NYW0); assay: hT2R panel inhibition, transient HEK293 G16g44, agonist Strychnine 50 μM; assay type: cell-based; conditions: HEK293, read-out: screening result against bitter receptor 10, compound at 25 μM; receptor activated to EC80 with the corresponding agonist
Method: as §1, §2

hT2R16 = hT2R16 (Homo sapiens (Human), UniProt Q9NYV7); assay: hT2R panel inhibition, transient HEK293 G16g44, agonist Salicin 1 mM; assay type: cell-based; conditions: HEK293, compound at 25 μM; receptor activated to EC80 with the corresponding agonist; read-out: screening result against bitter receptor 16
Method: as §1, §2

hT2R65 = assay: hT2R panel inhibition, transient HEK293 G16g44, agonist Oleuropein 1 mM; assay type: cell-based, human; conditions: compound at 25 μM; for screening result against bitter receptor 65: receptor activated to EC80 with the corresponding agonist
Method: as §1, §2

[3] = receptor activated to EC80 with the corresponding agonist, read-out: screening result against bitter receptor 61
[4] = receptor activated to EC80 with the corresponding agonist, read-out: screening result against bitter receptor 14
[5] = receptor activated to EC80 with agonist, read-out: inhibition of bitter receptor 61
[6] = receptor activated to EC80 with agonist, read-out: inhibition of bitter receptor 14
[7] = receptor activated to EC80 with agonist, read-out: inhibition of bitter receptor 7
[8] = receptor activated to EC80 with the corresponding agonist, read-out: screening result against bitter receptor 71
[9] = receptor activated to EC80 with the corresponding agonist, read-out: screening result against bitter receptor 7

Chain of hT2R61 (P59537 whole entry): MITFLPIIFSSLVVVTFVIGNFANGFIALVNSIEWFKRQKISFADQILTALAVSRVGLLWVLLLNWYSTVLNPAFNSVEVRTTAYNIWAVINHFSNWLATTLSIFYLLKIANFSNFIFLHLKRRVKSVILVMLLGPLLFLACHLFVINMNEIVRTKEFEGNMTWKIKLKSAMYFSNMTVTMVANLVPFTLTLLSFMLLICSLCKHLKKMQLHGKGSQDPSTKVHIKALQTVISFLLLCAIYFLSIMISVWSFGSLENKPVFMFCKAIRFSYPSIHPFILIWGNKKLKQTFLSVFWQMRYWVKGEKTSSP
T1 sequence (Q9NYV8 whole entry): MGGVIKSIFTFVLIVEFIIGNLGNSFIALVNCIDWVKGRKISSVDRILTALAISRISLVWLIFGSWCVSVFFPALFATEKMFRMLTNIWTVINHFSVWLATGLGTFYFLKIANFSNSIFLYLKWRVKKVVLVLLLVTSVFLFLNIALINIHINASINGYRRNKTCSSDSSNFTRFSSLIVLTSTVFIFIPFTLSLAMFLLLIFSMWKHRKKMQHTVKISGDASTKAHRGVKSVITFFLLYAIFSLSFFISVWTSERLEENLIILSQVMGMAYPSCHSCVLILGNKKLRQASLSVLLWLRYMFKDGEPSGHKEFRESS
Chain of hT2R64 (P59538 whole entry): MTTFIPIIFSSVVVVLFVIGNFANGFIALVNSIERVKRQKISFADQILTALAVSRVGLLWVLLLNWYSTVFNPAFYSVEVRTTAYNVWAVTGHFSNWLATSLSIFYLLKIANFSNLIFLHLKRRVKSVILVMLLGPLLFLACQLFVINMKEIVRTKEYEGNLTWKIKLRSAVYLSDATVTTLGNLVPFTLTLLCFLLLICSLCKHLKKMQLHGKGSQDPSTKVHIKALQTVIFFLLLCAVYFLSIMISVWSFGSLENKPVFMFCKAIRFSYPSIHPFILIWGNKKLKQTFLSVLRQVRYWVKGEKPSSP
Chain of hT2R7 (Q9NYW3 whole entry): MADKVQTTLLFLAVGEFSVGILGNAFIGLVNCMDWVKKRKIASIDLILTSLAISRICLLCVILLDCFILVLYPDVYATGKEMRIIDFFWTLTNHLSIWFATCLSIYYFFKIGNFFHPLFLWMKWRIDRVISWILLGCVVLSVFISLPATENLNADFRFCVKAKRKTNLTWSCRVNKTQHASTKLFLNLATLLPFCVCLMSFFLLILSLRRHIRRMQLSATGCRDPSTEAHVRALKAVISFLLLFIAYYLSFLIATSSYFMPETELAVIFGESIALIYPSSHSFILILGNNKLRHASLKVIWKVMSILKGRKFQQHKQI
Chain of hT2R3 (Q9NYW6 whole entry): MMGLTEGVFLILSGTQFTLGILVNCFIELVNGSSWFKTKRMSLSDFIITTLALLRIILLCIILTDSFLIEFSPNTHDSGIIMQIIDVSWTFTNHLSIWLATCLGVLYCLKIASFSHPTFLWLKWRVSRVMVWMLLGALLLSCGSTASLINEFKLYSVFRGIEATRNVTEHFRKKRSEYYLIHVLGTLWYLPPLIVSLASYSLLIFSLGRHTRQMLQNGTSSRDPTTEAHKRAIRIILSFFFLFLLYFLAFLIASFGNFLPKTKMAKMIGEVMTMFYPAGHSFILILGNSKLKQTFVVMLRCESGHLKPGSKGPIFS
Chain of hT2R71 (P59536 whole entry): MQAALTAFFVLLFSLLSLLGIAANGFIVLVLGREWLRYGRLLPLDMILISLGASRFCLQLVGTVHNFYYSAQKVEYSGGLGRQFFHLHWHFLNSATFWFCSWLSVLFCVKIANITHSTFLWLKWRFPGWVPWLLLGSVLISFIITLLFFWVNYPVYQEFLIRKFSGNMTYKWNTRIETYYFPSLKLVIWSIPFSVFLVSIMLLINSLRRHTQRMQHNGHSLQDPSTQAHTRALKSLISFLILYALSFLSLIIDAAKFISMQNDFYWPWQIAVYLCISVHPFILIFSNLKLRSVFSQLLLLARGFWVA
Chain of hT2R16 (Q9NYV7 whole entry): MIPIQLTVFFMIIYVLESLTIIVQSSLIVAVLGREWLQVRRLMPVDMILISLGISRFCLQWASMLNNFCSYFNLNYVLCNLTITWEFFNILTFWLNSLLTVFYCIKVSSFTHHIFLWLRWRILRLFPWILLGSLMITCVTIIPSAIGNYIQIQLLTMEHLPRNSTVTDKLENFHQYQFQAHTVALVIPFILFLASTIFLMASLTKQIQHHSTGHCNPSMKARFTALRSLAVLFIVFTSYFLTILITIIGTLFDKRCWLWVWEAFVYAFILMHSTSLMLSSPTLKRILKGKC
Chain of hT2R5 (Q9NYW4 whole entry): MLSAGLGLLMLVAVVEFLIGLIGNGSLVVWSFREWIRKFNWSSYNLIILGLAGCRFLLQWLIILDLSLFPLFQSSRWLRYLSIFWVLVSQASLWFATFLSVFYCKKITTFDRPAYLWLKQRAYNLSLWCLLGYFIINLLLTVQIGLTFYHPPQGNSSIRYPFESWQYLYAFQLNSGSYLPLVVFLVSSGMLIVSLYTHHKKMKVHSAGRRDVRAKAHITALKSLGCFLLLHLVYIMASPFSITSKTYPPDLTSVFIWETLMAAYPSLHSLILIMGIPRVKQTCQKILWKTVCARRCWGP
Chain of hT2R10 (Q9NYW0 whole entry): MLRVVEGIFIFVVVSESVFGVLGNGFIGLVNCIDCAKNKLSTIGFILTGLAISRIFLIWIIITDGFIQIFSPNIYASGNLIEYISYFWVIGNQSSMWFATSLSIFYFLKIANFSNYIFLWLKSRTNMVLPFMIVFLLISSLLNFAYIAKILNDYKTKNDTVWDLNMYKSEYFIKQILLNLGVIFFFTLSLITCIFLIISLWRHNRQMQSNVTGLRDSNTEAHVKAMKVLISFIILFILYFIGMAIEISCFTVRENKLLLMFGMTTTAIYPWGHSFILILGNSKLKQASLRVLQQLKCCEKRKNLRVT

Row | Structure (SMILES) | inhibition at 25 µM (hT2R3) [%] | inhibition at 25 µM (hT2R61; [3]) [%] | inhibition at 25 µM (hT2R64) [%] | inhibition at 25 µM (hT2R14 [1]; [4]) [%] | inhibition at 25 µM (hT2R5) [%] | screening result against bitter receptor 55 (hT2R55) | screening result against bitter receptor 63 (hT2R63) | screening result against bitter receptor 67 (hT2R67) | screening result against bitter receptor 44 (hT2R44) | inhibition at 25 µM (hT2R71; [8]) [%] | inhibition at 25 µM (hT2R7; [9]) [%] | inhibition at 25 µM (hT2R16) [%] | other results
1 | CN(Cc1ccccc1)S(=O)(=O)c1ccc(C(=O)O)cc1 [Example 5-55, 4-(N-benzyl-N-methylsulfamoyl)benzoic acid] | 20 to 40 | 20 to 40 | 40 to 60 | > 80 | 20 to 40 | ++ (40% to 60% inhibition = ++) | ++++ (80% or greater inhibition = ++++) | – | – | – | – | – | –
2 | Cc1ccccc1NS(=O)(=O)c1ccc2c(c1)c(=O)n(C)c(=O)n2C [Example 6-9, 1,3-dimethyl-2,4-dioxo-N-o-tolyl-1,2,3,4-tetrahydroquinazoline-6-sulfonamide] | – | – | – | – | – | – | – | – | – | – | – | – | inhibition of bitter receptor 44 (hT2R44): + (20% to 40% inhibition = +); IC50 (hT2R14 [2]; Table D, read-out: hT2R14 IC50): 1.73 µM; inhibition at 25 µM (hT2R61; [5]): 20 to 40%; inhibition at 25 µM (hT2R14 [1]; [6]): > 80%; inhibition at 25 µM (hT2R7; [7]): 40 to 60%; inhibition of bitter receptor 63 (hT2R63): + (20% to 40% inhibition = +)
3 | COc1ccc(CN(Cc2cccnc2)S(=O)(=O)c2ccc(C(=O)O)cc2)cc1 [Example 5-88, 4-(N-(4-methoxybenzyl)-N-(pyridin-3-ylmethyl)sulfamoyl)benzoic acid] | 20 to 40 | 40 to 60 | 20 to 40 | 20 to 40 | – | – | +++ (60% to 80% inhibition = +++) | + (20% to 40% inhibition = +) | + (20% to 40% inhibition = +) | 20 to 40 | – | – | –
4 | COc1ccc(CN(Cc2ccc(C)o2)S(=O)(=O)c2ccc(C(=O)O)cc2)cc1 [Example 5-63, 4-(N-(4-methoxybenzyl)-N-((5-methylfuran-2-yl)methyl)sulfamoyl)benzoic acid] | 20 to 40 | – | 40 to 60 | – | 20 to 40 | +++ (60% to 80% inhibition = +++) | +++ (60% to 80% inhibition = +++) | + (20% to 40% inhibition = +) | – | 20 to 40 | – | – | –
5 | COc1ccc(CN(Cc2ccccc2)S(=O)(=O)c2ccc(C(=O)O)cc2)cn1 [Example 5-90, 4-(N-benzyl-N-((6-methoxypyridin-3-yl)methyl)sulfamoyl)benzoic acid] | 40 to 60 | > 80 | 60 to 80 | > 80 | 20 to 40 | +++ (60% to 80% inhibition = +++) | ++++ (80% or greater inhibition = ++++) | – | +++ (60% to 80% inhibition = +++) | 60 to 80 | 60 to 80 | 20 to 40 | inhibition at 25 µM (hT2R10): 40 to 60%; screening result against bitter receptor 65 (hT2R65): ++ (40% to 60% inhibition = ++)
6 | N#Cc1ccccc1CN(Cc1ccccc1)S(=O)(=O)c1ccc(C(=O)O)cc1 [Example 5-92, 4-(N-benzyl-N-(2-cyanobenzyl)sulfamoyl)benzoic acid] | 20 to 40 | > 80 | > 80 | > 80 | 20 to 40 | ++++ (80% or greater inhibition = ++++) | ++++ (80% or greater inhibition = ++++) | – | ++++ (80% or greater inhibition = ++++) | 40 to 60 | 20 to 40 | 20 to 40 | inhibition at 25 µM (hT2R10): 20 to 40%
7 | O=C(O)c1ccc(S(=O)(=O)N(Cc2ccccc2)Cc2ccc(O)cc2)cc1 [Example 5-99, 4-(N-benzyl-N-(4-hydroxybenzyl)sulfamoyl)benzoic acid] | – | > 80 | 60 to 80 | > 80 | – | + (20% to 40% inhibition = +) | ++++ (80% or greater inhibition = ++++) | ++ (40% to 60% inhibition = ++) | +++ (60% to 80% inhibition = +++) | 60 to 80 | 20 to 40 | 20 to 40 | IC50 (hT2R14 [2]; Table C, read-out: hT2R14 IC50): 5.21 µM; screening result against bitter receptor 65 (hT2R65): ++ (40% to 60% inhibition = ++)
8 | Cn1c(=O)c2cc(S(=O)(=O)Nc3ccc4c(c3)OCO4)ccc2n(C)c1=O [Example 6-5, N-(benzo[d][1,3]dioxol-5-yl)-1,3-dimethyl-2,4-dioxo-1,2,3,4-tetrahydroquinazoline-6-sulfonamide] | – | – | – | – | – | – | – | – | – | – | – | – | inhibition of bitter receptor 44 (hT2R44): ++ (40% to 60% inhibition = ++); IC50 (hT2R14 [2]; Table D, read-out: hT2R14 IC50): 0.264 µM; inhibition at 25 µM (hT2R61; [5]): 20 to 40%; inhibition at 25 µM (hT2R14 [1]; [6]): > 80%; inhibition at 25 µM (hT2R71; receptor activated to EC80 with agonist, read-out: inhibition of bitter receptor 71): 60 to 80%; inhibition of bitter receptor 65 (hT2R65; receptor activated to EC80 with agonist): ++ (40% to 60% inhibition = ++); inhibition of bitter receptor 63 (hT2R63): ++++ (80% or greater inhibition = ++++)
9 | Cc1c(F)cccc1NS(=O)(=O)c1ccc2c(c1)c(=O)n(C)c(=O)n2C [Example 6-7, N-(3-fluoro-2-methylphenyl)-1,3-dimethyl-2,4-dioxo-1,2,3,4-tetrahydroquinazoline-6-sulfonamide] | – | – | – | – | – | – | – | – | – | – | – | – | inhibition at 25 µM (hT2R14 [1]; [6]): 40 to 60%; inhibition at 25 µM (hT2R7; [7]): 20 to 40%; inhibition of bitter receptor 63 (hT2R63): + (20% to 40% inhibition = +)
10 | O=C(O)c1ccc(S(=O)(=O)NCc2ccco2)cc1 [Example 5-54, 4-(N-(furan-2-ylmethyl)sulfamoyl)benzoic acid] | 20 to 40 | – | – | – | – | – | – | + (20% to 40% inhibition = +) | – | – | – | – | –
11 | COc1ccc(CN(Cc2ccccc2)S(=O)(=O)c2ccc(-c3nn[nH]n3)cc2)cc1 [Example 5-46, N-benzyl-N-(4-methoxybenzyl)-4-(1H-tetrazol-5-yl)benzene-sulfonamide] | 20 to 40 | > 80 | – | > 80 | – | + (20% to 40% inhibition = +) | +++ (60% to 80% inhibition = +++) | ++ (40% to 60% inhibition = ++) | ++ (40% to 60% inhibition = ++) | 60 to 80 | 20 to 40 | 20 to 40 | IC50 (hT2R14 [2]; read-out: IC50 on hT2R14 bitter receptor): 3.67 µM; screening result against bitter receptor 65 (hT2R65): ++ (40% to 60% inhibition = ++)
12 | COc1ccc(CN(Cc2ccccn2)S(=O)(=O)c2ccc(C(=O)O)cc2)cc1 [Example 5-87, 4-(N-(4-methoxybenzyl)-N-(pyridin-2-ylmethyl)sulfamoyl)benzoic acid] | – | 40 to 60 | 20 to 40 | – | – | – | + (20% to 40% inhibition = +) | + (20% to 40% inhibition = +) | – | – | – | – | –
